Tests used:
MMP-9 [1] = molecular target: MMP-9 (Homo sapiens, UniProt P14780); assay: K(obs) of individual phage substrates (set of 1369); format: biochemical; settings: MMP9; individual phage substrate of the set of 1369 peptides; dash in sequence marks cleavage position
MMP-9 [2] = assay: Substrate phage display with NGS: relative probability (RP) of P3-P1' tetramer clusters; format: biochemical, human; settings: MMP9; RP of the substrate's P3-P1' tetramer, substrate phage display with NGS;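 also: ratio of tetramer probability after protease selection to that in naive phage library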
MMP-2 = molecular target: T1, MMP-2 (Homo sapiens, UniProt P08253); assay: K(obs) of individual phage substrates (set of 1369); format: biochemical; settings: MMP2; individual phage substrate from the set of 1369 peptides; hyphen in the sequence marks the cleavage position
T1 sequence (P08253 110-660): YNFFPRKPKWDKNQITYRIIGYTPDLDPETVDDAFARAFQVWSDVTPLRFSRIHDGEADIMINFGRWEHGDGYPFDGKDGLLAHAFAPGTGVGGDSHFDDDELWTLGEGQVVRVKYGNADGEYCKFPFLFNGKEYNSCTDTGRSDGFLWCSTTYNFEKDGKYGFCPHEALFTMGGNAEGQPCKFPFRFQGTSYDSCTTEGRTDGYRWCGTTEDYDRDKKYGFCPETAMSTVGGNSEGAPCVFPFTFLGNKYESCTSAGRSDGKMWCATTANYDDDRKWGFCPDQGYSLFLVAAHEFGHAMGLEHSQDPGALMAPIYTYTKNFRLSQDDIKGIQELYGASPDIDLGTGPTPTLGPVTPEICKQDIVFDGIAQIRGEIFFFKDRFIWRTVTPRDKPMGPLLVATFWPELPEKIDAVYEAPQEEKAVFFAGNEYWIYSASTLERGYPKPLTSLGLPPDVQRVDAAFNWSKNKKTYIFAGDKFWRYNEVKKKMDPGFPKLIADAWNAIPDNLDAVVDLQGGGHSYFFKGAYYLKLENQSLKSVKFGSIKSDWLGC

Chain of MMP-9 (Homo sapiens, UniProt P14780) (P14780 94-707): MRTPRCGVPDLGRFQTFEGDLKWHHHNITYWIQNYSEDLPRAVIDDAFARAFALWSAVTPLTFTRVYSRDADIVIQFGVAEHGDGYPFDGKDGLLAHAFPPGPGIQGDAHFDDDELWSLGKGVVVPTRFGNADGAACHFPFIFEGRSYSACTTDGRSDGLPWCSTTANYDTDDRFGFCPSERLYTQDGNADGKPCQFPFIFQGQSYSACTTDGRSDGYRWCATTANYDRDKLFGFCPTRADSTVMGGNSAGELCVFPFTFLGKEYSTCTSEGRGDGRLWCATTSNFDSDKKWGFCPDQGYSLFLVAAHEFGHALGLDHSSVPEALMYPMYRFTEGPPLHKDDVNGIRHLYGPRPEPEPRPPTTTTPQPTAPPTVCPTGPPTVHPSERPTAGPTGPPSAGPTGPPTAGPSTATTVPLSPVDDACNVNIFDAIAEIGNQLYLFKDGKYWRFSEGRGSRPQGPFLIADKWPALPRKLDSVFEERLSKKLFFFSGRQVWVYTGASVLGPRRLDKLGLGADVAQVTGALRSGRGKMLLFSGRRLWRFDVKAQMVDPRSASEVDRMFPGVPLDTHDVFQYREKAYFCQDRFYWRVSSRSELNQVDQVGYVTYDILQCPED

Substance | Kobs (MMP-9 [1]) | Kobs (MMP-2) | relative probability (RP) (MMP-9 [2])
AHPSA-LTASG | 12792.1 M⁻¹ s⁻¹ | 12792.1 M⁻¹ s⁻¹ | 47.6113
AMPKH-LTASG | 12792.1 M⁻¹ s⁻¹ | 12792.1 M⁻¹ s⁻¹ | 46.5072
ATLAA-WTASG | 113.394 M⁻¹ s⁻¹ | 10866.7 M⁻¹ s⁻¹ | 1.553
DSPLS-LTASG | 12792.1 M⁻¹ s⁻¹ | 12792.1 M⁻¹ s⁻¹ | 48.1735
EAIGR-LTASG | 517.582 M⁻¹ s⁻¹ | 12792.1 M⁻¹ s⁻¹ | 4.541
EGPMR-LTASG | 12792.1 M⁻¹ s⁻¹ | 12792.1 M⁻¹ s⁻¹ | 42.6597
FEPQR-MTASG | 7815.03 M⁻¹ s⁻¹ | 690.17 M⁻¹ s⁻¹ | 31.7168
FHPSR-FTASG | 2916.17 M⁻¹ s⁻¹ | 12792.1 M⁻¹ s⁻¹ | 21.0555
FKAVA-LTASG | 12792.1 M⁻¹ s⁻¹ | 12792.1 M⁻¹ s⁻¹ | 32.1946
FVVRL-LTASG | 2615.58 M⁻¹ s⁻¹ | 2615.58 M⁻¹ s⁻¹ | 11.0035
FYFSN-LTASG | 0 M⁻¹ s⁻¹ | 12792.1 M⁻¹ s⁻¹ | 0.7913
GDPRW-LSTAS | 9740.44 M⁻¹ s⁻¹ | 6688.74 M⁻¹ s⁻¹ | 47.776
GEPSA-YRTAS | 12792.1 M⁻¹ s⁻¹ | 12792.1 M⁻¹ s⁻¹ | 46.6524

More lines, main results first:

Kobs (MMP-9 [1]) | Kobs (MMP-2) | Substance | relative probability (RP) (MMP-9 [2])
0 M⁻¹ s⁻¹ | 12792.1 M⁻¹ s⁻¹ | ATLAA-LTASG | 6.32
10866.7 M⁻¹ s⁻¹ | 12792.1 M⁻¹ s⁻¹ | CAPTA-LTASG | 40.9775
113.394 M⁻¹ s⁻¹ | 2996.69 M⁻¹ s⁻¹ | EHPGL-LTASG | 19.6268
12792.1 M⁻¹ s⁻¹ | 12792.1 M⁻¹ s⁻¹ | ERPFF-LTASG | 36.9909
6688.74 M⁻¹ s⁻¹ | 12792.1 M⁻¹ s⁻¹ | ESIRG-LTASG | 41.2198
5667.28 M⁻¹ s⁻¹ | 12792.1 M⁻¹ s⁻¹ | ESIRH-LTASG | 35.7683
3964.21 M⁻¹ s⁻¹ | 6396.07 M⁻¹ s⁻¹ | EWPSR-MTASG | 33.7336
3438.54 M⁻¹ s⁻¹ | 12792.1 M⁻¹ s⁻¹ | FAPAE-VTASG | 5.593
1283.43 M⁻¹ s⁻¹ | 912.511 M⁻¹ s⁻¹ | FDVWM-LTASG | 17.1619
12792.1 M⁻¹ s⁻¹ | 12792.1 M⁻¹ s⁻¹ | FIPFP-FTASG | 42.1583
6131.32 M⁻¹ s⁻¹ | 451.441 M⁻¹ s⁻¹ | FIPMW-STASG | 27.7553
12792.1 M⁻¹ s⁻¹ | 12792.1 M⁻¹ s⁻¹ | FLPRM-LTASG | 42.2884
1465.65 M⁻¹ s⁻¹ | 12792.1 M⁻¹ s⁻¹ | FQIGS-LTASG | 7.1912
10866.7 M⁻¹ s⁻¹ | 12792.1 M⁻¹ s⁻¹ | GAPAK-LRTAS | 39.5582
1071.29 M⁻¹ s⁻¹ | 12792.1 M⁻¹ s⁻¹ | GAPAR-FTTAS | 21.7112
12792.1 M⁻¹ s⁻¹ | 12792.1 M⁻¹ s⁻¹ | GEPLF-LRTAS | 38.6603
